Patent US4514330A, “Carbon-7-substituted atinomycin D analogue” (Trustees of Boston University, priority 1983, dated 1985)
In brackets after ≈: the same amount, converted by molar mass. Like-named read-outs stand apart in the source and are kept apart here.

Columns and labels:
DNA = experiment: Thermal denaturation of DNA (ΔTm), stabilization of DNA helical structure on drug binding; parameters: species or system calf thymus; settings: for DNA melting profile / ΔTm character of the DNA complex: thermal denaturation, words
Description: Thermal denaturation studies were carried out according to the procedure described in J. Med. Chem., Vol. 24, p. 1052 (1981). The ΔTm values in Table II give a measure of stabilization of DNA helical structure as a consequence of drug binding.
^a ΔTm = m of DNAdrug complex minus m of DNA.
Concentraiton of drug, 1.4 × 10^-4 M; of DNA (P), 1.4 ×
10^-3 M in 0.01 M phosphate buffer (pH 7.0), 5 × 10^-3 M in
EDTA and 5% dimethyl sulfoxide.
^d Highest dose tested. These values are derived at high temperatur
(67°-75° C.) and may not always correlate with the results
of other DNA-binding studies (e.g., absorptiometric or circular dichroic).
Melting points were obtained with a Thomas-Hoover melting point apparatus at a heating rate of 2° C./min. Column chromatography was accomplished with silica gel powder (Baker No. 3405, 60-20 mesh) or acid alumina (Woelm grade 1). Limited gel-filtration work was done on Sephadex LH-20, particle size 25-100 μm (Pharmacia Fine Chemicals). Thin-layer chromatography was performed on silica gel plates (E. M. Laboratories, Inc.). Solvent systems used were (A) butanol-formic acid-H2 O (75:13:12), (B) EtOAc-acetone (3:1), and (C) Cifferri, the organic phase of the mixture EtOAc-MeOH-H2 O (20:1:20). High-performance liquid chromatography was carried out on a Varian Model 5020 gradient liquid chromatograph equipped with CD-111L chromatography data system and fitted with Varian reversed-phase C18 column with isocratic solvent systems, CH3 -CN-5 mM NH4 OAc buffer, pH 6.4 (68:32 or 62:38), pressure 80-140 atm, flow rate 1.5 mL/min, with UV-visible variable and fixed wavelength dual detectors at 254 and 466 nm. Spectra were determined on the following instruments: IR spectra were obtained with a Perkin-Elmer Model 237 Infra Cord with KBr micropellets or chloroform solutions; UV-visible spectra were obtained on a Gilford 250 spectrophotometer, which, with the addition of a base-line reference compensator (Analog Multiplexer 6064) and thermoprogrammer, auto four cell programmer and thermoelectric cell holder 2577, was used to obtain thermal denaturation curves; NMR spectra were obtained on a JOEL FQ-90-90MHZ spectrometer equipped with Fourier transform; and CD spectra were obtained on a Cary 61 spectrophotometer. All elemental analyses were within ±0.4% of the theoretical values. Actinomycin D, batch no. NCS 3053, lot L554651-0-10, was provided by Natural Products Branch, National Cancer Institute, Silver Spring, Md. Calf thymus DNA type 1 was purchased from Sigma Chemical Co.

[1] = tested on: human lymphoblastic leukemic cells (CCRF-CEM); experiment: In vitro growth-inhibitory activity against human lymphoblastic leukemic cells (CCRF-CEM) in log phase; type: cell-based; settings: for IC50: Homo sapiens, final growth medium contained 1% Me2SO, log phase, read-out: ID50 (in vitro growth inhibition, CCRF-CEM)
Description: ^b Using human lymohoblastic leukemia cells in logplastic growth.
Compounds were dissolved in Me2 So medium, final growth medium

P-388 leukemia = experiment: In vivo antitumor activity against P-388 lymphocytic leukemia in CDF1 mice; settings: for % ILS (percent increase in life span) / MST (median survival time) / cure (over 55 day survivors): days 1, 5, 9; for minimal effective dose: Mus musculus, P388, ip, read-out: MED (minimum effective dose, 40% increase in life span over control); for fold increase in survival time over AMD (1b) or 7-hydroxyactinomycin D (2b): optimal nontoxic dose levels
Description: Studies on in vivo activity of AMD and AMD analogues were carried out with P-388 lymphocytic leukemia in CDF1 hybrid mice. The drugs were administered either daily for 4 successive days (qd 1-4) or on days 1, 5 and 9 (q4d 1, 5, 9) beginning 1 day after tumor implantation.
^a Male CDF1 (18-23 g) mice were inoculated intraperitoneally
(ip) with 10^6 P388 cells on day 0. Drugs were administered, also ip,
in 10% dimethyl sulfoxidesaline on days 1, 5 and 9. Test solutions were
kept at 0-4° C., protected from light, and the stability and
homogeneity were checked periodically by TLC and HPLC.
^b MST = median survival time.
^c % ILS = percent increase in life span.
^d Over 55 day survivors. Average of three experiments. The
^a Drugs administed ip once daily either for 4 successive days (qd
1-4) or on days 1, 5 and 9 (q4d 1, 5 9), starting 1 day after tumor
^b MED (minimum effective dose) is the dose (milligrams/kilogram)
providing an increase in life span of 40% over control in P388

normal CDF1 male mice = experiment: Maximum tolerated dose (LD10) in normal, tumor-free CDF1 male mice; type: in vivo; settings: for MTD (maximum tolerated dose, lethal for 10% of normal mice; = LD10): deaths during 21 days; for MTD dose as multiple of the MTD dose for AMD: q4d 1, 5, 9 schedule; for fold less toxic than AMD: qd 1-4 schedule
Description: ^c MTD (maximum tolerated dose) is the lethal dose
(milligrams/kilogram) for 10% normal CDF1 male mice (18-23 g);
were calculated from a plot of log dose vs. percent mortality. Average of
two to three experiments.
Biological Experiments. Determination of LD10 Values. Tumor-free CDF1 male mice weighing 18-23 g were given a broad range of doses of drugs in 10% dimethyl sulfoxide-saline on either days 1, 5 and 9 or on 4 successive days. Drugs were administered intraperitoneally (ip).
The maximum tolerated doses of AMD and analogues that caused deaths in only 10% of the tested animals in 21 days were recorded as MTD. The results are an average of two experiments in each. The MTD values obtained following schedules q4d 1, 5, 9 (three injections) and qd 1-4 (four injections) are recorded in Table IV. These doses are the same as LD10 (lethal dose of 10% of tumor-free animals in 21 days).

[2] = In vivo metabolic transformation and urinary excretion; parameters: species or system rat; settings: metabolites as conjugates of 4b
Description: The therapeutic indexes of both 3b and 4b in qd 1-4 and q4d 1, 5, 9 schedules of treatment are calculated and expressed in Table IV. […] These and other unidentified polar metabolites are excreted at about two to three times the rate of AMD in rat urine. This process of in vivo metabolic transformation and fast excretion appears to play a major role in reducing the in vivo toxicity factor of 3b and 4b.

[3] = three injections ip, q4d 1, 5, 9

SMILES	DNA melting profile / ΔTm character of the DNA complex (DNA)	IC50 [1]	% ILS (percent increase in life span) (P-388 leukemia; 0.15 mg/kg ip)	MST (median survival time) (P-388 leukemia; 0.15 mg/kg ip)	cure (over 55 day survivors) (P-388 leukemia; 0.15 mg/kg ip)	% ILS (percent increase in life span) (P-388 leukemia; 0.30 mg/kg ip)	MST (median survival time) (P-388 leukemia; 0.30 mg/kg ip)	cure (over 55 day survivors) (P-388 leukemia; 0.30 mg/kg ip)	% ILS (percent increase in life span) (P-388 leukemia; 0.60 mg/kg ip)	MST (median survival time) (P-388 leukemia; 0.60 mg/kg ip)	cure (over 55 day survivors) (P-388 leukemia; 0.60 mg/kg ip)	% ILS (percent increase in life span) (P-388 leukemia; 1.20 mg/kg ip)	MST (median survival time) (P-388 leukemia; 1.20 mg/kg ip)	cure (over 55 day survivors) (P-388 leukemia; 1.20 mg/kg ip)	% ILS (percent increase in life span) (P-388 leukemia; 1.80 mg/kg ip)	MST (median survival time) (P-388 leukemia; 1.80 mg/kg ip)	cure (over 55 day survivors) (P-388 leukemia; 1.80 mg/kg ip)	minimal effective dose (P-388 leukemia; four injections ip, qd 1-4)	minimal effective dose (P-388 leukemia; [3])	therapeutic index: MTD/MED (P-388 leukemia; four injections ip, qd 1-4)	other results
Cc1c2oc3c(C)c(OCC4CO4)cc(C(=O)N[C@@H]4C(=O)N[C@H](C(C)C)C(=O)N5CCC[C@H]5C(=O)N(C)CC(=O)N(C)[C@@H](C(C)C)C(=O)O[C@@H]4C)c3nc-2c(C(=O)N[C@@H]2C(=O)N[C@H](C(C)C)C(=O)N3CCC[C@H]3C(=O)N(C)CC(=O)N(C)[C@@H](C(C)C)C(=O)O[C@@H]2C)c(N)c1=O (stereo partly shown) [Compound 3b, 7-(2,3-Epoxypropoxy)actinomycin D]	very broad	0.009 µg/mL (≈ 0.00678 µM)	164%	29 days	0/7	263%	40 days	1/7	255%	41 days	1/7	291%	43 days	3/7	300%	44 days	3/7	0.0375 mg/kg	0.05 mg/kg	43	times more cytotoxic than AMD ([1]; vs AMD): about sevenfold; % ILS (percent increase in life span) (P-388 leukemia; 2.40 mg/kg ip): 136%; MST (median survival time) (P-388 leukemia; 2.40 mg/kg ip): 26 days; cure (over 55 day survivors) (P-388 leukemia; 2.40 mg/kg ip): 2/7; breadth of dose-response curve (P-388 leukemia; ip, q4d 1, 5, 9): very broad; overall activity relative to AMD (P-388 leukemia; ip, q4d 1, 5, 9): superior to AMD; cure (tumor free), animals out of seven treated (P-388 leukemia; optimal dose ranges of 1.2 and 1.8 mg/kg, ip, q4d 1, 5, 9): three; fold increase in survival time over AMD (1b) or 7-hydroxyactinomycin D (2b) (P-388 leukemia; ip, q4d 1, 5, 9): ~2.5 fold; therapeutic index: MTD/MED (P-388 leukemia; [3]): 72; long-term survivors (P-388 leukemia; throughout the dose range, ip, q4d 1, 5, 9): long-term survivors throughout this dose range; MTD (maximum tolerated dose, lethal for 10% of normal mice; = LD10) (normal CDF1 male mice; four injections ip, qd 1-4): 1.6 milligrams/kilogram; MTD dose as multiple of the MTD dose for AMD (normal CDF1 male mice): 14 fold; fold less toxic than AMD (normal CDF1 male mice): 11 fold; MTD (maximum tolerated dose, lethal for 10% of normal mice; = LD10) (normal CDF1 male mice; [3]): 3.6 milligrams/kilogram; in vivo metabolic transformation [2]: transformed in vivo to highly polar metabolites
Cc1c2oc3c(C)c(OCC(O)CO)cc(C(=O)N[C@@H]4C(=O)N[C@H](C(C)C)C(=O)N5CCC[C@H]5C(=O)N(C)CC(=O)N(C)[C@@H](C(C)C)C(=O)O[C@@H]4C)c3nc-2c(C(=O)N[C@@H]2C(=O)N[C@H](C(C)C)C(=O)N3CCC[C@H]3C(=O)N(C)CC(=O)N(C)[C@@H](C(C)C)C(=O)O[C@@H]2C)c(N)c1=O (stereo partly shown) [Compound 4b, 7-(2,3-Dihydroxypropoxy) actinomycin D]	sharp and smooth	0.085 µg/mL (≈ 0.0632 µM)	45%	16 days	0/7	82%	20 days	2/7	136%	25 days	1/7	191%	32 days	0/7	36%	15 days	0/7	0.125 mg/kg	0.15 mg/kg	6	Tm (ΔTm = Tm of DNA-drug complex minus Tm of DNA) (DNA; drug 1.4 × 10^-4 M, DNA (P) 1.4 × 10^-3 M, 0.01 M phosphate buffer pH 7.0, EDTA, 5% dimethyl sulfoxide): 5.1 ± 0.15 °C; times less cytotoxic than AMD ([1]; vs AMD): about 1.5 times; fold increase in survival time over AMD (1b) or 7-hydroxyactinomycin D (2b) (P-388 leukemia; ip, q4d 1, 5, 9): ~1.5 fold; therapeutic index: MTD/MED (P-388 leukemia; [3]): 12; MTD (maximum tolerated dose, lethal for 10% of normal mice; = LD10) (normal CDF1 male mice; four injections ip, qd 1-4): 1.4 milligrams/kilogram; MTD dose as multiple of the MTD dose for AMD (normal CDF1 male mice): 7 fold; fold less toxic than AMD (normal CDF1 male mice): 9 fold; MTD (maximum tolerated dose, lethal for 10% of normal mice; = LD10) (normal CDF1 male mice; [3]): 1.8 milligrams/kilogram; in vivo metabolic transformation [2]: transformed in vivo to highly polar metabolites
